From patent US9751887B2, “Imidazo[1,2-b]pyridazine derivatives as kinase inhibitors” (Daiichi Sankyo Company, Limited, priority 2012, dated 2017)
Counter-ions that a name gives are not always drawn. Like-named read-outs stand apart in the source and are kept apart here.

Columns and labels:
[1] = system: HCC78 cells having ROS1 fusion gene; assay: HCC78 cell growth assay (CellTiter-Glo); format: cell-based; details: Homo sapiens, 72 hours culture, 2% FBS medium, luminescence, four separate measurements, read-out: growth inhibitory effect on HCC78 cells having ROS1 fusion gene IC50
Protocol: Each compound of the present invention was assayed for its cell growth inhibitory effect using HCC78 cells having ROS1 fusion gene.
The suspension was dispensed at a concentration of 100 μL/well to a 96-well culture plate for cell culture (SUMITOMO BAKELITE, Cat No MS-0096S) (hereinafter, referred to as an assay plate). […] In this context, the final concentration of DMSO was set to 0.4%. Then, the cells were cultured for 72 hours in a CO2 incubator.
CellTiter-Glo Luminescent Cell Viability Assay reagent (Promega, Cat No G7571) was dispensed at a concentration of 100 μL/well to the assay plate. The contents in each well were reacted at room temperature for 10 minutes while stirred using a plate mixer. […] The luminescence intensity of each well was measured using EnVision. The luminescence intensity of each well obtained in four separate measurements was defined as the number of cells. IC50 values were calculated by curve fitting using GraphPad Prism version 4.

ROS1 [2] = biological target: T1, ROS1 (Homo sapiens, UniProt P08922); assay: ROS1 kinase inhibitory activity evaluation (mobility shift, EZ Reader II); format: biochemical; details: ROS1 25 pg/μL, FL-Peptide 22 substrate, three separate measurements
T1 construct: purchased Carna Biosciences 08-163
T1 sequence (P08922 28-2347): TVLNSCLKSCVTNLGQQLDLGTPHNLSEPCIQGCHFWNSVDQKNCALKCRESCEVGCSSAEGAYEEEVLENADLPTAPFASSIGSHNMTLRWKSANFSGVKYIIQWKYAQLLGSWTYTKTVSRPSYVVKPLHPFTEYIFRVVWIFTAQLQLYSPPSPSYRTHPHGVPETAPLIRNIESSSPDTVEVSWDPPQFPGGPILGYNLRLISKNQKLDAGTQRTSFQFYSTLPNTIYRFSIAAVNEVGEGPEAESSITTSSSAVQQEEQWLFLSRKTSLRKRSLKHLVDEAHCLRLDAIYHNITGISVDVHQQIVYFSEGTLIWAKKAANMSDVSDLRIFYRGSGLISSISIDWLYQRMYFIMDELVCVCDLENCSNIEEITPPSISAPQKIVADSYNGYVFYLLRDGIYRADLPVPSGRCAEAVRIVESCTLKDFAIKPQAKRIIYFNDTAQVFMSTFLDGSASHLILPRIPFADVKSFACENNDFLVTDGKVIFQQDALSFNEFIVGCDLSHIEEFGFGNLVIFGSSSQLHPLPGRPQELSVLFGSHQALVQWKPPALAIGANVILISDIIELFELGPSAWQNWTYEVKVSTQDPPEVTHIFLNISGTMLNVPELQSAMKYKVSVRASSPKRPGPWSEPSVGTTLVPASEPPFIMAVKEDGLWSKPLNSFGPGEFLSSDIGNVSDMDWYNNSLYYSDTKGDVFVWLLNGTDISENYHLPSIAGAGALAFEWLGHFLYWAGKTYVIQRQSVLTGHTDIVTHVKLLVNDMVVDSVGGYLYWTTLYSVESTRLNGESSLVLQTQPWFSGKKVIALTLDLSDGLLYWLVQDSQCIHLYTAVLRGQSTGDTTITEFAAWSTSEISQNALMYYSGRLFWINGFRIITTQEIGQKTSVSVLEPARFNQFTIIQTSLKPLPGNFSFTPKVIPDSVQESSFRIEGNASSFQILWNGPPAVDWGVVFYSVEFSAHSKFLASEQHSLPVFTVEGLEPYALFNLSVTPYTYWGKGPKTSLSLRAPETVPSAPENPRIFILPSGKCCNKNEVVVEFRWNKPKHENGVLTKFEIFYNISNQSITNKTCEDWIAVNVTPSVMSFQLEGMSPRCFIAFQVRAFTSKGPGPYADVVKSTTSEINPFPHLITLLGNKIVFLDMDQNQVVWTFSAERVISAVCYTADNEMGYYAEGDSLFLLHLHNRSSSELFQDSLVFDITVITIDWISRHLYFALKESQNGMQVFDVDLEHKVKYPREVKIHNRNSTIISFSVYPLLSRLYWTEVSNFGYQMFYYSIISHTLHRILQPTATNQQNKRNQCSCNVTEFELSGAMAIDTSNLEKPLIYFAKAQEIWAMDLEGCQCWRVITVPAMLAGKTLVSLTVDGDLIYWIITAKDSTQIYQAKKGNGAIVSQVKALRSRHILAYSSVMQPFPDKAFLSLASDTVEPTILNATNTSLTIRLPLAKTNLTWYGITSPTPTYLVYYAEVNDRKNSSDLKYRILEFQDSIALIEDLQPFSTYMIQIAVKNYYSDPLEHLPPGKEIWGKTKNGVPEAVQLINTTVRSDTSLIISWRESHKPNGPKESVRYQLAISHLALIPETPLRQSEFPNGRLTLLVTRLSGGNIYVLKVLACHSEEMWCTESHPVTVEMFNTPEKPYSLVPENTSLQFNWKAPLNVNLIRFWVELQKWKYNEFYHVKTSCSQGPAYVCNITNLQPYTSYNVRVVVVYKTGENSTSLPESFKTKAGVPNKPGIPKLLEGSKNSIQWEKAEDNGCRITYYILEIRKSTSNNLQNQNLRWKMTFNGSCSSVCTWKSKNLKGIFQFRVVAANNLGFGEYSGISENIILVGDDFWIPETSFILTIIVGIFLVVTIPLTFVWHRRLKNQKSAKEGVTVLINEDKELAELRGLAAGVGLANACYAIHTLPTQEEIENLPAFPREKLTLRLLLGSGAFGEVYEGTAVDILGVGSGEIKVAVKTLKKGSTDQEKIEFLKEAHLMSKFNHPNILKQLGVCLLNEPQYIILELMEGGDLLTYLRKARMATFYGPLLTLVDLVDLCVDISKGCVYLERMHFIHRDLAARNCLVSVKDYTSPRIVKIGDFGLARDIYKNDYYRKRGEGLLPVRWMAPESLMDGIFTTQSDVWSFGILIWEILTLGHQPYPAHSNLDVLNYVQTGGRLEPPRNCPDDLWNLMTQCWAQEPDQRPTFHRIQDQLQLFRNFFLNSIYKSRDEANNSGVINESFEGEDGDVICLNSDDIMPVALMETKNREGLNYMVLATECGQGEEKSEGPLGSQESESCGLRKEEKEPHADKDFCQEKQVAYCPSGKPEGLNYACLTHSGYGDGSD
Protocol: Next, a substrate reaction solution was prepared. […] Then, the reaction stop solution was added thereto at a concentration of 40 μL/well. Substrate phosphorylation intensity was measured using EZ Reader II (Caliper Life Sciences).

ROS1 [3] = biological target: T1, ROS1; assay: ROS1 autophosphorylation inhibitory activity evaluation (ADP-Glo); format: biochemical; details: 200 nM inactive ROS1, ATP 1 mM, 25° C. 1.5 hours, ADP generated, four separate measurements
Protocol: Fifty mM HEPES (pH 7.5), 10 mM MgCl2, 0.01% Brij-58, and 2.5 mM DTT were mixed to prepare an enzymatic reaction solution. […] ATP (final concentration: 1 mM) was further added thereto at a concentration of 2.5 μL/well. The resulting plate was left standing at 25° C. for 1.5 hours to cause enzymatic reaction. After the completion of enzymatic reaction, ADP-Glo Reagent-1 (Promega, V9103) was added thereto at a concentration of 2.5 μL/well, and the plate was left standing at room temperature for 60 minutes. Then, ADP-Glo Reagent-2 (Promega) was added thereto at a concentration of 5 μL/well, and the plate was left standing at room temperature for 60 minutes. The amount of ADP generated by the autophosphorylation of ROS1 was measured using EnVision (PerkinElmer Japan). The amount of ADP generated in four separate measurements was defined as the autophosphorylation intensity of ROS1. IC50 values were calculated by curve fitting using GraphPad Prism version 4 (GraphPad software).

| Compound | IC50 ([1]; HCC78, 72 h) [nM] | IC50 (ROS1 [2]) [nM] | IC50 (ROS1 [3]) [nM] | IC50 ([1]; HCC78) [nM] |
| --- | --- | --- | --- | --- |
| C[C@@H](Nc1ccc2ncc(-c3ccc(O[C@H]4C[C@H](N)C4)cc3)n2n1)c1cccc(F)c1 [Example 51] | 20 to 100 | 1 to 10 | < 20 |  |
| C[C@@H](Nc1ccc2ncc(-c3ccc(O[C@H]4C[C@@H](N)C4)cc3)n2n1)c1cccc(F)c1 [Example 61, 3-[4-(3-cis-Aminocyclobutoxy)phenyl]-N-[(1R)-1-(3-fluorophenyl)ethyl]imidazo[1,2-b]pyridazin-6-amine] | 20 to 100 | 1 to 10 | < 20 |  |
| CC[C@H](N)COc1ccc(-c2cnc3ccc(N[C@H](C)c4cccc(F)c4)nn23)cc1 [Example 49, 3-[4-[(2S)-2-Aminobutoxy]phenyl]-N-[(1R)-1-(3-fluorophenyl)ethyl]imidazo[1,2-b]pyridazin-6-amine] | < 20 | < 1 | < 20 |  |
| C[C@@H](Nc1ccc2ncc(-c3cccc(OC[C@@H]4CCN4)c3)n2n1)c1cccc(F)c1 [Example 57, 3-[3-[[(2S)-Azetidin-2-yl]methoxy]phenyl]-N-[(1R)-1-(3-fluorophenyl)ethyl]imidazo[1,2-b]pyridazin-6-amine] | 20 to 100 | 1 to 10 | 20 to 100 |  |
| C[C@@H](Nc1ccc2ncc(-c3ccc(N4C[C@@H](N)CC4=O)c(F)c3)n2n1)c1cccc(F)c1 [Example 92, (4S)-4-Amino-1-[2-fluoro-4-[6-[[(1R)-1-(3-fluorophenyl)ethyl]amino]imidazo[1,2-b]pyridazin-3-yl]phenyl]pyrrolidin-2-one] | < 20 | < 1 | < 20 |  |
| CC(Oc1ccc2ncc(-c3ccc(N4C[C@@H](N)CC4=O)cc3)n2n1)c1cncc(Cl)c1 (stereo partly shown) [Example 112] | 20 to 100 | 1 to 10 | < 20 |  |
| C[C@@H](Nc1ccc2ncc(-c3cccc(OCCCN)c3)n2n1)c1cccc(F)c1 [Example 68, 3-[3-(3-Aminopropoxy)phenyl]-N-[(1R)-1-(3-fluorophenyl)ethyl]imidazo[1,2-b]pyridazin-6-amine] | 20 to 100 | 1 to 10 | < 20 |  |
| c1ccc(CNc2ccc3ncc(-c4ccc(OC[C@@H]5CCCN5)cc4)n3n2)cc1 [Example 1, N-Benzyl-3-[4-[[(2S)-pyrrolidin-2-yl]methoxy]phenyl]imidazo[1,2-b]pyridazin-6-amine] | 20 to 100 | 1 to 10 | 20 to 100 |  |
| C[C@@H](Nc1ccc2ncc(-c3ccc(O[C@@H]4CCC[C@@H]4N)cc3)n2n1)c1cccc(F)c1 [Example 36, 3-[4-[(1R,2S)-2-Aminocyclopentoxy]phenyl]-N-[(1R)-1-(3-fluorophenyl)ethyl]imidazo[1,2-b]pyridazin-6-amine] | 100 to 600 | < 1 | < 20 |  |
| CC(N)COc1ccc(-c2cnc3ccc(N[C@H](C)c4cccc(F)c4)nn23)cc1 (stereo partly drawn) [Example 35, 3-[4-(2-Aminopropoxy)phenyl]-N-[(1R)-1-(3-fluorophenyl)ethyl]imidazo[1,2-b]pyridazin-6-amine] | < 20 |  |  |  |
| C[C@@H](Oc1ccc2ncc(-c3ccc(OC[C@@H]4CCCN4)cc3)n2n1)c1cccc(F)c1 [Example 16, 6-[(1R)-1-(3-Fluorophenyl)ethoxy]-3-[4-[[(2S)-pyrrolidin-2-yl]methoxy]phenyl]imidazo[1,2-b]pyridazine] | 20 to 100 | < 1 |  |  |
| CC(Oc1ccc2ncc(-c3ccc(N4C[C@@H](N)CC4=O)cc3)n2n1)c1cc(F)cnc1F (stereo partly drawn) [Example 134, (4S)-4-Amino-1-[4-[6-[(1-(2,5-difluoro-3-pyridyl)ethoxy]imidazo[1,2-b]pyridazin-3-yl]phenyl]pyrrolidin-2-one hydrochloride] |  | 1 to 10 |  |  |
| C[C@@H](Nc1ccc2ncc(-c3ccc(OC4CCCC4N)cc3)n2n1)c1cccc(F)c1 (single isomer, unassigned) [Example 32] |  | < 1 | < 20 |  |

More lines, now with the values ahead:

| IC50 ([1]; HCC78, 72 h) [nM] | IC50 (ROS1 [2]) [nM] | IC50 (ROS1 [3]) [nM] | IC50 ([1]; HCC78) [nM] | Compound |
| --- | --- | --- | --- | --- |
| 100 to 600 | 1 to 10 | 20 to 100 |  | CN(Cc1ccccc1)c1ccc2ncc(-c3ccc(N4C[C@@H](N)CC4=O)cc3)n2n1 [Example 94, (4S)-4-Amino-1-[4-[6-[benzyl(methyl)amino]imidazo[1,2-b]pyridazin-3-yl]phenyl]pyrrolidin-2-one] |
|  |  | < 20 |  | CN(Cc1cccc(F)c1)c1ccc2ncc(-c3ccc(N4CC(C)(N)CC4=O)cc3)n2n1 (single isomer, unassigned) [Example 86, 4-Amino-1-[4-[6-[(3-fluorophenyl)methyl-methylamino]imidazo[1,2-b]pyridazin-3-yl]phenyl]-4-methylpyrrolidin-2-one] |
| 20 to 100 | 1 to 10 | 20 to 100 |  | CN(Cc1cc(F)ccc1Cl)c1ccc2ncc(-c3ccc(N4C[C@@H](N)CC4=O)cc3)n2n1 [Example 99, (4S)-4-Amino-1-[4-[6-[(2-chloro-5-fluorophenyl)methyl-methylamino]imidazo[1,2-b]pyridazin-3-yl]phenyl]pyrrolidin-2-one] |
| 20 to 100 | < 1 | < 20 |  | N[C@H]1CC(=O)N(c2ccc(-c3cnc4ccc(OCc5cccc(F)c5)nn34)cc2)C1 [Example 76, (4S)-4-Amino-1-[4-[6-[(3-fluorophenyl)methoxy]imidazo[1,2-b]pyridazin-3-yl]phenyl]pyrrolidin-2-one] |
| 20 to 100 | 1 to 10 | 20 to 100 |  | CN(Cc1cncc(F)c1Cl)c1ccc2ncc(-c3ccc(N4C[C@@H](N)CC4=O)cc3)n2n1 [Example 126, (4S)-4-Amino-1-[4-[6-[(4-chloro-5-fluoro-3-pyridyl)methyl-methylamino]imidazo[1,2-b]pyridazin-3-yl]phenyl]pyrrolidin-2-one] |
| < 20 | < 1 | < 20 |  | CN(Cc1cc(F)cc(F)c1)c1ccc2ncc(-c3ccc(N4C[C@@H](N)CC4=O)cc3)n2n1 [Example 120, (4S)-4-Amino-1-[4-[6-[(3,5-difluorophenyl)methyl-methylamino]imidazo[1,2-b]pyridazin-3-yl]phenyl]pyrrolidin-2-one] |
|  |  | < 20 |  | C[C@@H](Oc1ccc2ncc(-c3ccc(N4C[C@@H](N)CC4=O)cc3)n2n1)c1cccc(F)c1 [Example 133, (4S)-4-Amino-1-[4-[6-[(1R)-1-(3-fluorophenyl)ethoxy]imidazo[1,2-b]pyridazin-3-yl]phenyl]pyrrolidin-2-one hydrochloride] |
| 100 to 600 | 1 to 10 | 20 to 100 |  | N#Cc1cccc(COc2ccc3ncc(-c4ccc(N5C[C@@H](N)CC5=O)cc4)n3n2)c1 [Example 101, 3-[[3-[4-[(4S)-4-Amino-2-oxopyrrolidin-1-yl]phenyl]imidazo[1,2-b]pyridazin-6-yl]oxymethyl]benzonitrile] |
| 20 to 100 | 1 to 10 | 20 to 100 |  | CN(Cc1cc(F)ccc1F)c1ccc2ncc(-c3ccc(N4C[C@@H](N)CC4=O)nc3)n2n1 [Example 129, (4S)-4-Amino-1-[5-[6-[(2,5-difluorophenyl)methyl-methylamino]imidazo[1,2-b]pyridazin-3-yl]-2-pyridyl]pyrrolidin-2-one] |
| 100 to 600 | 1 to 10 | < 20 |  | CC(Oc1ccc2ncc(-c3ccc(N4C[C@@H](N)CC4=O)cc3)n2n1)c1cccc(F)c1F (stereo partly drawn) [Example 102, (4S)-4-Amino-1-[4-[6-[1-(2,3-difluorophenyl)ethoxy]imidazo[1,2-b]pyridazin-3-yl]phenyl]pyrrolidin-2-one] |
|  |  | 20 to 100 |  | CN(Cc1cncc(F)c1)c1ccc2ncc(-c3ccc(N4CC(C)(N)CC4=O)cc3)n2n1 (single isomer, unassigned) [Example 125, 4-Amino-1-[4-[6-[(5-fluoro-3-pyridyl)methyl-methylamino]imidazo[1,2-b]pyridazin-3-yl]phenyl]-4-methylpyrrolidin-2-one] |
| < 20 | 1 to 10 | < 20 |  | CN(Cc1cncc(F)c1)c1ccc2ncc(-c3ccc(N4C[C@@H](N)CC4=O)cc3)n2n1 [Example 118, (4S)-4-Amino-1-[4-[6-[(5-fluoro-3-pyridyl)methyl-methylamino]imidazo[1,2-b]pyridazin-3-yl]phenyl]pyrrolidin-2-one] |
|  |  |  | 100 to 600 | CN(Cc1cccc(Cl)c1)c1ccc2ncc(-c3ccc(N4CC(N)CC4=O)cc3)n2n1 (stereo not shown) [Example 96, 4-Amino-1-[4-[6-[(3-chlorophenyl)methyl-methylamino]imidazo[1,2-b]pyridazin-3-yl]phenyl]pyrrolidin-2-one] |
